Measurements: ChEMBL document CHEMBL1157348, “The alkaloid conessine and analogues as potent histamine H3 receptor antagonists” (J Med Chem, 2008)
pKi: −log10 of the molar value.

Experiments:
Histamine H3 receptor = Histamine H3 receptor (Rattus norvegicus, UniProt Q9QYN8); assay: Displacement of [3H]NAMH from rat full length histamine H3 receptor expressed in rat C6 cells; format: cell-based; details: read-out: Ki
Histamine H1 receptor = Histamine H1 receptor (Homo sapiens, UniProt P35367); assay: Displacement of [3H]mepyramine from human histamine H1 receptor; details: read-out: Ki
Histamine H2 receptor = Histamine H2 receptor (Homo sapiens, UniProt P25021); assay: Displacement of [3H]tiotidine from human histamine H2 receptor; details: read-out: Ki
Histamine H4 receptor = Histamine H4 receptor (Homo sapiens, UniProt Q9H3N8); assay: Displacement of [3H]histamine from human histamine H4 receptor expressed in HEK cells; format: cell-based, HEK293; details: read-out: Ki
[1] = Binding affinity at cholinergic receptor
[2] = Selectivity ratio for human adrenergic alpha 2C4 receptor over human H3 receptor
[3] = Half life in rat; format: ADME, organism-based; details: in vivo
Glucocorticoid receptor = target: T1, Glucocorticoid receptor (Homo sapiens, UniProt P04150); assay: Binding affinity at glucocorticoid receptor
T1 sequence (P04150 whole entry): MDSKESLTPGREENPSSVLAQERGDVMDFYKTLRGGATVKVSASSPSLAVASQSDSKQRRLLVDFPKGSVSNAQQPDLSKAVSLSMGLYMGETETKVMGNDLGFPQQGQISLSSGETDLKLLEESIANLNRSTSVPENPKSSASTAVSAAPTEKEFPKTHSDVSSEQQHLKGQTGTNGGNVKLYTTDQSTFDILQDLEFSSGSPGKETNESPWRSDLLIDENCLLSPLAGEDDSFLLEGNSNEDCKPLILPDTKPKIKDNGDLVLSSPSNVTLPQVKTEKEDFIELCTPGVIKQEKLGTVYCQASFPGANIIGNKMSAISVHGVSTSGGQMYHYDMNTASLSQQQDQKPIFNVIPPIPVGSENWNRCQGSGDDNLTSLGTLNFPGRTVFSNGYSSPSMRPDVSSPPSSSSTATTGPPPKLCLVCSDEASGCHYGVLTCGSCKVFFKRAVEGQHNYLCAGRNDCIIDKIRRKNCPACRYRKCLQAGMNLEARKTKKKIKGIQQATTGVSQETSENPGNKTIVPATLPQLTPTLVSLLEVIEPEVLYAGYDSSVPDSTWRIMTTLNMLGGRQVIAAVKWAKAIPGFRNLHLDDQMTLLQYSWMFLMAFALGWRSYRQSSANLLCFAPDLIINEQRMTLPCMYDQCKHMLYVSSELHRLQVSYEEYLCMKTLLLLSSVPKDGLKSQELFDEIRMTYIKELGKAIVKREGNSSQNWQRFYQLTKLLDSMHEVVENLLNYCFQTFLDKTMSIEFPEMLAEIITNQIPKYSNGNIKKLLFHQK

Androgen receptor = target: T2, Androgen receptor (Homo sapiens, UniProt P10275); assay: Binding affinity at androgen receptor
T2 sequence (P10275 whole entry): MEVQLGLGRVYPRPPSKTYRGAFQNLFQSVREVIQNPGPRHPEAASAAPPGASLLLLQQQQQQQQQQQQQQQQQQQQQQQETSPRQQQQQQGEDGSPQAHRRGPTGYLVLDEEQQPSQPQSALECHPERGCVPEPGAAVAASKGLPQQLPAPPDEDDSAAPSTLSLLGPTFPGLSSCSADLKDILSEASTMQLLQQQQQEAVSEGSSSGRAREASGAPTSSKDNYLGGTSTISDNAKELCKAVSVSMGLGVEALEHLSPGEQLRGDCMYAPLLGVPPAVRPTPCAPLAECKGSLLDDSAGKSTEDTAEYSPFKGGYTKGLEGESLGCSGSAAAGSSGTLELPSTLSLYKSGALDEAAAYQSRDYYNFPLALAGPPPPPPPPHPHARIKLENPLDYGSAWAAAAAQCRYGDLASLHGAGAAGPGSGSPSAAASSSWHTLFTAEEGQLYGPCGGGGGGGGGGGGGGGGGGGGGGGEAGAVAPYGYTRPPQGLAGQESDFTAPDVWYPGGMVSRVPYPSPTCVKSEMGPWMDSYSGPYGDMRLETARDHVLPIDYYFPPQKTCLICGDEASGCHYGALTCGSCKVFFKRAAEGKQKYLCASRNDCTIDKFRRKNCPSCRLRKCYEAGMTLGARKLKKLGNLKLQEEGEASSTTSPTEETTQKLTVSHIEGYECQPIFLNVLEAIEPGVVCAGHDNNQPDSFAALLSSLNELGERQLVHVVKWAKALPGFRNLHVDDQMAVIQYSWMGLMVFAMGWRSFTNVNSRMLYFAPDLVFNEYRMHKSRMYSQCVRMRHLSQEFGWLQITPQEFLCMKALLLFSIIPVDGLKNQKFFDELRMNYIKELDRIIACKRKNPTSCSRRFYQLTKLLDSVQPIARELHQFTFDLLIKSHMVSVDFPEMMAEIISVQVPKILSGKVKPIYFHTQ

Estrogen receptor = target: T3, Estrogen receptor (Homo sapiens, UniProt P03372); assay: Binding affinity at estrogen receptor
T3 sequence (P03372 whole entry): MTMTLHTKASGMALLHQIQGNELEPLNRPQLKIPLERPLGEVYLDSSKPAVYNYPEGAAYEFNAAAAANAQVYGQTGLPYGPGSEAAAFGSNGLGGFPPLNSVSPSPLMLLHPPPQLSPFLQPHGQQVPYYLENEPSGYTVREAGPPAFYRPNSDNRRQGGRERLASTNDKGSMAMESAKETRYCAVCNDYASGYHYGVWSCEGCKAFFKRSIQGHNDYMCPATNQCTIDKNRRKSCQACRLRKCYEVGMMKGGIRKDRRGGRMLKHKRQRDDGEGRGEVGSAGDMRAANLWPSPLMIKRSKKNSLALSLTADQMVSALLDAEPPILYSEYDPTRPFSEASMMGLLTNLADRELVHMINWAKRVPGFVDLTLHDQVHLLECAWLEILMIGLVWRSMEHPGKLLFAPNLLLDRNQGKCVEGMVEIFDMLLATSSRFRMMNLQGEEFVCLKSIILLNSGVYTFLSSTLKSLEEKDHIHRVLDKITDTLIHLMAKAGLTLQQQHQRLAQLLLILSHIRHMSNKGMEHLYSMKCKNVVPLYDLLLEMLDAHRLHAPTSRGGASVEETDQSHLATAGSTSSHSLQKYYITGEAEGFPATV

Sequence of Histamine H1 receptor (P35367 whole entry): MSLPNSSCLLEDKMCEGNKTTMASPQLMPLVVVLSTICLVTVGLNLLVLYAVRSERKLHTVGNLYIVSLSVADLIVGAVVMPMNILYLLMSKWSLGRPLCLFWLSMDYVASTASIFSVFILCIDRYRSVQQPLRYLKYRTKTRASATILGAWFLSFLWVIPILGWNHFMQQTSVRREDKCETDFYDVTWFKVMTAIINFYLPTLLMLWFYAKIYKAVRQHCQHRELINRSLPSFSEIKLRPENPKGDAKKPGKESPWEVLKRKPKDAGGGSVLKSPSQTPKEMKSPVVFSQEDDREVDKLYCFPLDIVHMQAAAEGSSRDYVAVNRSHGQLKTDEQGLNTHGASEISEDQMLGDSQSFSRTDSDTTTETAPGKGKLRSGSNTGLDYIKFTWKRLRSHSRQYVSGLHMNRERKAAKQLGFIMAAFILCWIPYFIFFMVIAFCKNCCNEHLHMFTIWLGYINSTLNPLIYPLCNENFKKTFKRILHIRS
Sequence of Histamine H2 receptor (P25021 whole entry): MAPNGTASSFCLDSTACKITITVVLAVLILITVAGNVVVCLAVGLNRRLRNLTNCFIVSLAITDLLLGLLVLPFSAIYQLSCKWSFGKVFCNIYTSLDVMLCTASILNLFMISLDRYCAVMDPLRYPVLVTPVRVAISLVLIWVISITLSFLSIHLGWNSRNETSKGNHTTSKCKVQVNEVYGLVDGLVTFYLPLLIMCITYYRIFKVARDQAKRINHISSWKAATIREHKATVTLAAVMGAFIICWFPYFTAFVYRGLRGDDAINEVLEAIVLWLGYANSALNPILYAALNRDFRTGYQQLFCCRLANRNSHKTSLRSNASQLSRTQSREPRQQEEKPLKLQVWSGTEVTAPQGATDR
Sequence of Histamine H3 receptor (Q9QYN8 whole entry): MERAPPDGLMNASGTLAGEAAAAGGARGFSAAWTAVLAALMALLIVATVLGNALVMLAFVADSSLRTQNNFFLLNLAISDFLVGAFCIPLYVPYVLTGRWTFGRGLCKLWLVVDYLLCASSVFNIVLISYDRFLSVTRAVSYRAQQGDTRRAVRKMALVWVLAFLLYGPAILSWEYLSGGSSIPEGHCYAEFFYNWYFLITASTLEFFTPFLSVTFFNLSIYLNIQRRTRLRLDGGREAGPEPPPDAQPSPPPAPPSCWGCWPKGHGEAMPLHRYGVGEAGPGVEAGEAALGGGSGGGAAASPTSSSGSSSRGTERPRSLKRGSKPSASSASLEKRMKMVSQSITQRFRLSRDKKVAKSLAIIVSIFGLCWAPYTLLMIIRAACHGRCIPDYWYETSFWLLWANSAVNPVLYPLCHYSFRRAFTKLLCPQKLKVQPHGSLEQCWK
Sequence of Histamine H4 receptor (Q9H3N8 whole entry): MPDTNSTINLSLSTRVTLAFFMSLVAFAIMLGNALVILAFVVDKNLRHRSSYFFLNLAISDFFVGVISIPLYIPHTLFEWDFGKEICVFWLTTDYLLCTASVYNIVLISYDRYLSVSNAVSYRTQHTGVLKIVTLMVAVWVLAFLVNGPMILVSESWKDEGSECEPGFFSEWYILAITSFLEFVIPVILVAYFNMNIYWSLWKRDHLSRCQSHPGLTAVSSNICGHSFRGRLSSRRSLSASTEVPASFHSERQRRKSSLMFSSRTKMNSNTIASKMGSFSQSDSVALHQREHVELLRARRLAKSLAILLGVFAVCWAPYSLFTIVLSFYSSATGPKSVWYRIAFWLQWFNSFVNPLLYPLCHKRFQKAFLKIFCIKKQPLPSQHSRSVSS

**Q.** With CN[C@@H](C(=O)N(C)[C@H]1CC[C@@]2(C)C(=CC[C@H]3[C@@H]4CC[C@@H]5[C@H](C)N(C)C[C@@]54CC[C@@H]32)C1)C(C)C as the compound, how does the pKi (Histamine H3 receptor) read?
**A.** Its pKi is 8.59.

**Q.** What about the pKi (Histamine H1 receptor) of the same compound?
**A.** Its pKi is < 5.00.

**Q.** What about the pKi (Histamine H2 receptor) of the same compound?
**A.** Its pKi is < 5.00.

**Q.** And the pKi (Histamine H4 receptor)?
**A.** The pKi was < 5.00.

**Q.** And the pKi [1]?
**A.** The pKi was < 5.00.

**Q.** What about the Selectivity ratio [2] of the same compound?
**A.** Its Selectivity ratio is 370.

**Q.** And the half-life [3]?
**A.** The half-life was 77 h.

**Q.** And the pKi (Glucocorticoid receptor)?
**A.** Its pKi is < 4.52.

**Q.** And the pKi (Androgen receptor)?
**A.** The pKi was < 4.52.

**Q.** And the pKi (Estrogen receptor)?
**A.** Its pKi is < 4.52.
